Reference: patent US11198713B2, “Agents modulating beta-catenin functions and methods thereof” (FOG PHARMACEUTICALS, INC., priority 2017, dated 2021)

Molecular target: T1, full-length beta-catenin (Axin site) (Homo sapiens, UniProt P35222)
T1 construct: 15 nM full-length beta-catenin, 20 nM FITC labeled peptide in buffer
T1 sequence (P35222 1-781): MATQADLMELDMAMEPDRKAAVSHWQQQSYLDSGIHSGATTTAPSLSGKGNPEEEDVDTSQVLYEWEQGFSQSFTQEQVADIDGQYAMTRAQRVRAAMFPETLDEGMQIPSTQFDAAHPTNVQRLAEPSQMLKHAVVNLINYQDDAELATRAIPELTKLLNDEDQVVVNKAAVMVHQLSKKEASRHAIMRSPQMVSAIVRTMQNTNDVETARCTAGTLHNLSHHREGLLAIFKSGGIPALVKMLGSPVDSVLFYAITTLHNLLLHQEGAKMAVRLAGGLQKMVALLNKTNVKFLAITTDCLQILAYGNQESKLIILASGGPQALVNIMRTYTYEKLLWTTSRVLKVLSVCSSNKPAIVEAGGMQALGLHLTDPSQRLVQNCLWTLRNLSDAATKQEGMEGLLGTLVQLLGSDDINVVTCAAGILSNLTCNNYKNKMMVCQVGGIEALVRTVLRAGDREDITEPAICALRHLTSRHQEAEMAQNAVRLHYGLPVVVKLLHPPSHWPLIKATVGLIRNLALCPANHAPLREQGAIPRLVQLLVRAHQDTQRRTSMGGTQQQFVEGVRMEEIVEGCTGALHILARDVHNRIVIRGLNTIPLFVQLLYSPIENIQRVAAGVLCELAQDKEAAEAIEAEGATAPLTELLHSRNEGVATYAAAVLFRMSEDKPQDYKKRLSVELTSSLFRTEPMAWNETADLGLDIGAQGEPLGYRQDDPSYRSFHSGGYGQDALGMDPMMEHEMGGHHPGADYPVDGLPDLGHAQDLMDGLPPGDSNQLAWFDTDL
Assay: Competition fluorescence polarization assay (Axin site probe)
Format: binding
Conditions: competition fluorescence polarization, Table 2; read-out: in vitro FP EC50
Protocol: FIG. 1. […] Peptide solutions were prepared in buffer (50 mM Tris pH 8.0, 250 mM NaCl, 2% glycerol, 0.5 mM EDTA, 0.02% w/v sodium azide) using a 3-fold serial dilution from 5 μM. Probe solution (15 nM full-length 13-Catenin, 20 nM FITC labeled peptide (FITC-PEG1-PQ-S5-ILD-S5-HVRRVWR (SEQ ID NO: 1) (hydrocarbon staple formed by two S5 via olefin metathesis)) in buffer) was prepared and incubated for 5 minutes, then 40 μL per well plated in a black polystyrene 384-well plate (Corning). Equal volume of the titrated peptide was added to the plate and incubated protected from light for 15 minutes prior to read. Reads were performed on a Spectramax M5 (Molecular Devices) in duplicate.
FIG. 7. […] BCL9 Competition FP assay: Peptide solutions were prepared in buffer (50 mM Tris pH 8.0, 250 mM NaCl, 2% glycerol, 0.5 mM EDTA, 0.02% w/v sodium azide) using a 3-fold serial dilution from 10 μM. Probe solution (250 nM full-length beta-catenin, 20 nM 5FAM labeled peptide in buffer) was prepared and 40 μL per well plated in a black polystyrene 384-well plate (Corning). Equal volume of the titrated peptide was added to the plate and incubated protected from light for 15 minutes prior to read. Reads were performed on a Spectramax M5 (Molecular Devices) in duplicate. Probe: Ac-[…]nLeu-Leu-2NapA-bala-bala-Lys5FAM-NH2 (SEQ ID NO: 2) (from Biochemistry, 2009, 48 (40), pp 9534-9541). Axin Competition FP assay: Peptide solutions were prepared in buffer (50 mM Tris pH 8.0, 250 mM NaCl, 2% glycerol, 0.5 mM EDTA, 0.02% w/v sodium azide) using a 3-fold serial dilution from 5 μM. Probe solution (15 nM full-length beta-catenin, 20 nM FITC labeled peptide in buffer) was prepared and incubated for 5 minutes, then 40 μL per well plated in a black polystyrene 384-well plate (Corning). Equal volume of the titrated peptide was added to the plate and incubated protected from light for 15 minutes prior to read. Reads were performed on a Spectramax M5 (Molecular Devices) in duplicate. Probe: FITC-StAx-33 from Grossmann et al. PNAS 109 17942-17947.

SMILES	EC50
CC[C@H](C)[C@@H]1NC(=O)[C@](C)(NC(=O)[C@H](C)NC(=O)[C@@H]2CCCN2C(C)=O)CCCC=CCCCCCC[C@@](C)(C(=O)N[C@@H](CCCNC(=N)N)C(=O)N[C@H](C(=O)N[C@@H](Cc2c[nH]c3ccccc23)C(N)=O)C(C)C)NC(=O)[C@H](C(C)C)NC(=O)[C@H](Cc2c[nH]cn2)NC(=O)[C@H](C)NC(=O)[C@H](CC(=O)O)NC(=O)[C@H](CC(C)C)NC1=O (single isomer, unassigned) [FP0212s Isomer 2, Ac-P-A-R5-I-L-D-A-H-V-S8-R-V-W-NH2]	0.1 to 0.5 µM
CC[C@H](C)[C@@H]1NC(=O)[C@H](Cc2c[nH]cn2)NC(=O)[C@H](C)NC(=O)[C@H](CC(=O)O)NC(=O)[C@H](CC(C)C)NC(=O)[C@H]([C@@H](C)CC)NC(=O)[C@](C)(NC(=O)[C@H](C)NC(C)=O)CCCCCCC=CCOC(=O)N2CC[C@@](C(=O)N[C@@H](CCCNC(=N)N)C(=O)N[C@H](C(=O)N[C@@H](Cc3c[nH]c4ccccc34)C(N)=O)C(C)C)(C2)NC1=O (single isomer, unassigned) [FP0217c Isomer 1, Ac-AR8ILDAHIMBRVW (SEQ ID NO: 280)]	0.5 to 5 µM
CC[C@H](C)[C@@H]1NC(=O)[C@H](Cc2c[nH]cn2)NC(=O)[C@H](C)NC(=O)[C@H](CC(=O)O)NC(=O)[C@H](CC(C)C)NC(=O)[C@H]([C@@H](C)CC)NC(=O)[C@](C)(NC(=O)[C@H](C)NC(C)=O)CCCCCCC=CCCC[C@@](C)(C(=O)N[C@@H](CCCNC(=N)N)C(=O)N[C@H](C(=O)N[C@@H](Cc2c[nH]c3ccccc23)C(N)=O)C(C)C)NC1=O (single isomer, unassigned) [FP0217s Isomer 1, Ac-A-R8-I-L-D-A-H-I-S5-R-V-W-NH2]	< 0.1 µM
CC[C@H](C)[C@@H]1NC(=O)[C@H](Cc2c[nH]cn2)NC(=O)[C@H](C)NC(=O)[C@H](CC(=O)O)NC(=O)[C@H](CC(C)C)NC(=O)[C@H]([C@@H](C)CC)NC(=O)[C@](C)(NC(=O)[C@H](C)NC(C)=O)CCCCCCC=CCOC(=O)N2CC[C@@](C(=O)N[C@@H](Cc3cccc4ccccc34)C(=O)N[C@H](C(=O)N[C@@H](Cc3c[nH]c4ccccc34)C(N)=O)C(C)C)(C2)NC1=O (single isomer, unassigned) [FP0365c Isomer 1, Ac-A-R8-I-L-D-A-H-I-MB-1NapA-V-W-NH2]	0.5 to 5 µM

Next, values leading:

EC50	SMILES
< 0.1 µM	CC[C@H](C)[C@@H]1NC(=O)[C@H](Cc2c[nH]cn2)NC(=O)[C@H](C)NC(=O)[C@H](CC(=O)O)NC(=O)[C@H](CC(C)C)NC(=O)[C@H]([C@@H](C)CC)NC(=O)[C@](C)(NC(=O)[C@H](C)NC(C)=O)CCCCCCC=CCCC[C@@](C)(C(=O)N[C@@H](CCCNC(=N)N)C(=O)N[C@H](C(=O)N[C@@H](Cc2c[nH]c3ccccc23)C(N)=O)C(C)C)NC1=O (single isomer, unassigned) [FP0217s Isomer 2, Ac-A-R8-I-L-D-A-H-I-S5-R-V-W-NH2]
0.1 to 0.5 µM	CC[C@H](C)[C@@H]1NC(=O)[C@H](Cc2c[nH]cn2)NC(=O)[C@H](C)NC(=O)[C@H](CC(=O)O)NC(=O)[C@H](CC(C)C)NC(=O)[C@H]([C@@H](C)CC)NC(=O)[C@](C)(NC(=O)[C@H](C)NC(C)=O)CN(C)C(=O)OCC=CCCCCCC[C@@](C)(C(=O)N[C@@H](CCCNC(=N)N)C(=O)N[C@H](C(=O)N[C@@H](Cc2c[nH]c3ccccc23)C(N)=O)C(C)C)NC1=O (single isomer, unassigned) [FP0335c Isomer 1, Ac-A-ME-I-L-D-A-H-I-S8-R-V-W-NH2]
< 0.1 µM	CC[C@H](C)[C@@H]1NC(=O)[C@H](Cc2c[nH]cn2)NC(=O)[C@H](C)NC(=O)[C@H](CC(=O)O)NC(=O)[C@H](CC(C)C)NC(=O)[C@H]([C@@H](C)CC)NC(=O)[C@](C)(NC(=O)[C@H](C)NC(C)=O)CN(C)C(=O)OCC=CCCCCCC[C@@](C)(C(=O)N[C@@H](CCCNC(=N)N)C(=O)N[C@H](C(=O)N[C@@H](Cc2c[nH]c3ccccc23)C(N)=O)C(C)C)NC1=O (single isomer, unassigned) [FP0335c Isomer 2, Ac-A-ME-I-L-D-A-H-I-S8-R-V-W-NH2]
